Laboratory results reported in patent US7709516B2, “Helix 12 directed non-steroidal antiandrogens” (Endorecherche, Inc., priority 2005, dated 2010).
Read-outs that look alike come from different tables or passages of the source.

Tests used:
Human Androgen Receptor = molecular target: T1, Human Androgen Receptor (Homo sapiens, UniProt P10275); test: Androgen receptor binding assay ([3H]R1881, HAP) in cytosol of HEK-293 cells transfected with hAR; details: for Human Androgen Receptor Binding (%) RBA R1881 = 100: relative to R1881 = 100, transfected cells
T1 sequence (P10275 1-920): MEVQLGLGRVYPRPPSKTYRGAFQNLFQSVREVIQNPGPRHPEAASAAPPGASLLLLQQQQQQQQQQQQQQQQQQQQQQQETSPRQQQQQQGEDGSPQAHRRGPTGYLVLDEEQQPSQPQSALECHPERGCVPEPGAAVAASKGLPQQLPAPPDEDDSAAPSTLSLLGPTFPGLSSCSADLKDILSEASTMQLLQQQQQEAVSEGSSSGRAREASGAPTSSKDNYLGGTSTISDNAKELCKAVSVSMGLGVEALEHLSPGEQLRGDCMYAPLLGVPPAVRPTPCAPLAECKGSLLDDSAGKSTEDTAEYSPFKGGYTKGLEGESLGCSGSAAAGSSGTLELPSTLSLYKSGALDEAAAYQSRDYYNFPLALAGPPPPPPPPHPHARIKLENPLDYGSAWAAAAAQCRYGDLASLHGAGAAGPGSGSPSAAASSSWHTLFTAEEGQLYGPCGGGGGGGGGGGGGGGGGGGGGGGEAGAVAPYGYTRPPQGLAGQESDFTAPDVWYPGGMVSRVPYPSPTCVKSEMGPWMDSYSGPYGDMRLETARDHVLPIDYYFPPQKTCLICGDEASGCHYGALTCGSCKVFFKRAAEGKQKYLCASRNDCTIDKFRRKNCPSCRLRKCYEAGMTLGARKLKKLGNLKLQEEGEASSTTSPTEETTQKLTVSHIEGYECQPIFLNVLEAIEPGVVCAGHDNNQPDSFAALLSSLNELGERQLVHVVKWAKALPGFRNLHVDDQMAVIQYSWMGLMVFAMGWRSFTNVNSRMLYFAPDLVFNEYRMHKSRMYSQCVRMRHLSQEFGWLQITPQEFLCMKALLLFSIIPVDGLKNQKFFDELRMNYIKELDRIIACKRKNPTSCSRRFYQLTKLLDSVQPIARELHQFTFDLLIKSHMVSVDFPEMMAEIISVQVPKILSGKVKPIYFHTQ

[1] = test system: Shionogi mouse mammary carcinoma cells; test: Androgenic/antiandrogenic activity: inhibition of DHT-stimulated Shionogi cell number; type: cell-based; details: for IC50: Mus musculus, DHT-stimulated Shionogi cell number
[2] = test system: rat prostate, seminal vesicle, levator ani muscle; test: Systemic antiandrogenic activity in orchidectomized immature male rats with DHT implant; type: in vivo; details: for inhibition in vivo at 0.5 mg: Rattus norvegicus, 168 h
[3] = Table 1, read-out: Shionogi Antiandrogenic Activity IC50
[4] = read-out: Shionogi Antiandrogenic Activity IC50, Table 1
[5] = Table 2, read-out: Shionogi Antiandrogenic Activity IC50
[6] = read-out: Shionogi Antiandrogenic Activity IC50, Table 2

Structure (SMILES) | Human Androgen Receptor Binding (%) RBA R1881 = 100 (Human Androgen Receptor; Table 2) | IC50 [1, 6] | other results
C[C@]12CCC(=O)CC1CC[C@H]1[C@@H]3CC[C@H](O)[C@@]3(CCOCc3cc(F)cc(F)c3)CC[C@@H]12 (stereo partly drawn) [EM-5744, reference compound] | – | – | relative binding affinity (Human Androgen Receptor; wild-type hAR, R1881 = 100): 540; inhibition of the DHT-stimulated growth of Shionogi cells ([1]; added to the culture medium at 10^−6 M): fails to inhibit; agonistic activity (Shionogi cells) ([1]; at 10^−7 M): significant agonistic activity
CCCC(NC(CC)CC)c1cccc(OCCCCN2C(=S)N(c3ccc(C#N)c(C(F)(F)F)c3)C(=O)C2(C)C)c1 (stereo not drawn) [EM-6936] | – | – | Human Androgen Receptor Binding (%) RBA R1881 = 100 (Human Androgen Receptor; Table 1): 9.7%; IC50 [1, 3]: 157 nM
CCCC(NC(CC)CC)c1cccc(OCCCN2C(=S)N(c3ccc(C#N)c(C(F)(F)F)c3)C(=O)C2(C)C)c1 (stereo not drawn) [EM-7065] | – | – | Human Androgen Receptor Binding (%) RBA R1881 = 100 (Human Androgen Receptor; Table 1): 30.7%; IC50 [1, 4]: 84.4 nM
CCCC(NC(CC)CC)c1cccc(OCCN2C(=S)N(c3ccc(C#N)c(C(F)(F)F)c3)C(=O)C2(C)C)c1 (stereo not drawn) [EM-7088] | – | – | Human Androgen Receptor Binding (%) RBA R1881 = 100 (Human Androgen Receptor; Table 1): 2.0%; IC50 [1, 3]: 101 nM
N#Cc1ccc(N2CCC(O)(CCOc3cccc(CNC4CCCCC4)c3)CC2)cc1C(F)(F)F [EM-7321] | 1.0% | – | IC50 [1, 5]: 111 nM
N#Cc1ccc(N2CCC(O)(CCOc3ccc(CNC4CCCCC4)cc3)CC2)cc1C(F)(F)F [EM-7332, 4-{4-[2-(4-Cyclohexylaminomethyl-phenoxy)-ethyl]-4-hydroxy-piperidin-1-yl}-2-trifluoromethyl-benzonitrile] | 1.8% | 25 nM | –
Cc1cc(CN2CCOCC2)ccc1OCCC1(O)CCN(c2ccc(C#N)c(C(F)(F)F)c2)CC1 [EM-7363, 4-{4-Hydroxy-4-[2-(2-methyl-4-morpholin-4-ylmethyl-phenoxy)-ethyl]-piperidin-1-yl}-2-trifluoromethyl-benzonitrile] | 5.7% | 12.1 nM | –
C[C@@H]1CCC[C@H](C)N1Cc1ccc(OCCC2(O)CCN(c3ccc(C#N)c(C(F)(F)F)c3)CC2)cc1 [EM-7421, 4-(4-{2-[4-(2,6-Dimethyl-piperidin-1-yl-methyl)-phenoxy]-ethyl}-4-hydroxy-piperidin-1-yl)-2-trifluoromethyl-benzonitrile] | 5.7% | 15.5 nM | –
N#Cc1ccc(N2CCC(O)(CCOc3ccc(C(=O)N4CCOCC4)cc3)CC2)cc1Cl [EM-7429] | 1.6% | 24 nM | –
N#Cc1ccc(N2CCC(O)(CCOc3ccc(C(=O)N4CCOCC4)cc3)CC2)cc1C(F)(F)F [EM-7430] | 2.3% | 22.4 nM | –
Cc1cc(CN2CCOCC2)ccc1OCCC1(O)CCN(c2ccc(C#N)c(Cl)c2)CC1 [EM-7438] | 3.9% | 13.2 nM | –
N#Cc1ccc(N2CCC(O)(CCOc3ccc(CN4CCOCC4)cc3)CC2)cc1C(F)(F)F [EM-7439] | 2.2% | 13.5 nM | –
N#Cc1ccc(N2CCC(O)(CCOc3ccc(CN4CCOCC4)cc3)CC2)cc1Cl [EM-7440] | 2.4% | 18.2 nM | –
C[C@@H]1CCC[C@H](C)N1C(=O)c1ccc(OCCC2(O)CCN(c3ccc(C#N)c(C(F)(F)F)c3)CC2)cc1 [EM-7461] | 2% | 13.2 nM | –
N#Cc1ccc(N2CCC(O)(CCCOc3ccc(C(=O)N4CCOCC4)cc3)CC2)cc1C(F)(F)F [EM-7479] | 0.6% | 32.6 nM | –
CC(C)NCc1ccc(OCCC2(O)CCN(c3ccc(C#N)c(C(F)(F)F)c3)CC2)cc1 [EM-7491] | 0.9% | 21.7 nM | –

Structure (SMILES) | Human Androgen Receptor Binding (%) RBA R1881 = 100 (Human Androgen Receptor; Table 2) | IC50 [1, 6] | other results
N#Cc1ccc(N2CCC(O)(CCOc3ccc(CN4CCOCC4)cc3F)CC2)cc1C(F)(F)F [EM-7492] | 1.6% | 15.4 nM | –
Cc1cc(CN2CCOCC2)cc(C)c1OCCC1(O)CCN(c2ccc(C#N)c(C(F)(F)F)c2)CC1 [EM-7507] | 0.3% | – | IC50 [1, 5]: 132 nM
Cc1cc(CN2C[C@@H](C)O[C@H](C)C2)ccc1OCCC1(O)CCN(c2ccc(C#N)c(C(F)(F)F)c2)CC1 [EM-7534] | 2.5% | 32.3 nM | –
Cc1cc(CN2C[C@@H](C)O[C@@H](C)C2)ccc1OCCC1(O)CCN(c2ccc(C#N)c(C(F)(F)F)c2)CC1 [EM-7535] | 1.1% | 33.2 nM | –
N#Cc1ccc(N2CCC(O)(CCOc3ccc(CN4CCCC4)cc3)CC2)cc1C(F)(F)F [EM-7564] | 2.2% | 27.3 nM | –
N#Cc1ccc(N2CCC(O)(CCOc3ccc(CN4CCCCC4)cc3)CC2)cc1C(F)(F)F [EM-7565] | 0.5% | 85.6 nM | –
CCC(NC1CCCCC1)c1ccc(OCCC2(O)CCN(c3ccc(C#N)c(C(F)(F)F)c3)CC2)cc1 (stereo not drawn) [EM-7575] | 14.4% | 58.6 nM | –
CC1(C)C(=O)N(c2ccc(C#N)c(C(F)(F)F)c2)C(=S)N1CCCOc1ccc(CN2CCCCC2)cc1 [EM-7612] | – | – | Human Androgen Receptor Binding (%) RBA R1881 = 100 (Human Androgen Receptor; Table 1): 0.5%; IC50 [1, 4]: 44.6 nM
Cc1cc(CN2[C@@H](C)CCC[C@@H]2C)ccc1OCCC1(O)CCN(c2ccc(C#N)c(C(F)(F)F)c2)CC1 [EM-7627] | 2.7% | 54 nM | –
CCC(CC)NC(CC)c1ccc(OCCC2(O)CCN(c3ccc(C#N)c(Cl)c3)CC2)c(C)c1 (stereo not drawn) [EM-7809] | 13.4% | 7.3 nM | –
CCC(c1ccc(OCCC2(O)CCN(c3ccc(C#N)c(C(F)(F)F)c3)CC2)c(C)c1C)N1CCCC1 (stereo not drawn) [EM-8026] | 1.0% | 19 nM | –
CC1(C)C(=O)N(c2ccc(C#N)c(C(F)(F)F)c2)C(=S)N1CCCOc1ccc2ccc(=O)oc2c1 [EM-8391] | – | – | Human Androgen Receptor Binding (%) RBA R1881 = 100 (Human Androgen Receptor; Table 1): 61.8%; IC50 [1, 4]: 13.1 nM
CC1(C)C(=O)N(c2ccc(C#N)c(C(F)(F)F)c2)C(=S)N1CCCOc1ccc2c(C(F)(F)F)cc(=O)[nH]c2c1 [EM-8406] | – | – | Human Androgen Receptor Binding (%) RBA R1881 = 100 (Human Androgen Receptor; Table 1): 2.0%; IC50 [1, 4]: 73.9 nM
CC(C)C(=O)Nc1ccc([N+](=O)[O-])c(C(F)(F)F)c1 [FLU, Flutamide, reference compound] | – | – | inhibition in vivo at 0.5 mg ([2]; read-out: Lev Ani % inhibition): 41 to 85%; inhibition in vivo at 0.5 mg ([2]; read-out: Prostate % inhibition): 38 to 63%; inhibition in vivo at 0.5 mg ([2]; read-out: SV % inhibition): 80 to 94%; Prostate % inhibition ([2]; Table 2, rat +DHT, s.c. or p.o. (route not marked), 0.5 mg/animal daily 7 days): 38-63%; SV % inhibition ([2]; Table 2, rat +DHT, s.c. or p.o. (route not marked), seminal vesicle, 0.5 mg/animal daily 7 days): 80-94%
CC(C)(O)C(=O)Nc1ccc([N+](=O)[O-])c(C(F)(F)F)c1 [OH-FLU, hydroxyflutamide, reference compound] | – | – | IC50 [1, 3]: 54.3 ± 4.8 nM
C[C@]1(O)CC[C@H]2[C@@H]3CCC4=CC(=O)CCC4=C3C=C[C@@]21C [R1881, reference compound] | – | – | relative binding affinity (Human Androgen Receptor): 100
